This is an account of results in patent publication US11963998B2, “Modulation of heparin-binding epidermal growth factor activity for tympanic membrane healing” (The Board of Trustees of the Leland Stanford Junior …, priority 2013, dated 2024).

Assay [1] relates to acute tympanic perforations in mice. In words: HB-EGF inhibitor applied to acute tympanic membrane perforations (chronic TM perforation model). It counts as in vivo. Particulars: for Perforations open at 2 months / Perforations open at 3 months: mice, OSU8-1 10 mM on gel foam over seven days. The protocol:
EGFR ligand shedding can be inhibited to create a chronic tympanic membrane perforation model. Subtotal perforations were created in the pars tensa of TMs in 20 mice using a curved needle. OSU8.1 (10 mM), a selective HB-EGF inhibitor (see Tokumaru et al. (2000) J. Cell Biol.), was injected onto gel foam (placed through and onto the perforation) over seven days. Mice were sacrificed at time points (Day 2, 7, 14, 30, 44, 60 and 90) to observe the effects on keratinocyte migration. The contralateral ear was used as a control with saline placed onto gel foam. All of these were closed within 2 weeks. Five of seven (71%) of the treatment ears were open at three months. Perforation size was stable over three months (using ImageJ to calculate the perforation area as a percentage of the pars tensa area). A larger cohort was undertaken with 87.9% (n=58) having chronic perforations at 3 months.
100% of HB-EGF inhibitor treated perforations were present at two months compared to 5% of controls and 71% were present at three months compared to 5% of controls

For assay [2], the system named is chronic perforation model with ET occlusion inoculated with Pseudomonas aeruginosa. In words: HB-EGF treatment in animal model for chronic suppurative otitis media (CSOM). Particulars: polymer and HB-EGF at 5 μg/ml. It counts as in vivo, mice. An excerpt: Testing in an animal model for chronic suppurative otitis media. After creating the chronic perforation model with ET occlusion, Pseudomonas aeruginosa (dose of 6×10^9 colony forming units per ml) were inoculated into the middle ear through the existing chronic perforations. At 2 weeks the ear fluid was collected and sent for polymerase chain reaction (PCR) to confirm the presence of bacteria. This positive PCR validated the CSOM model. The mice were then divided into two cohorts. One received polymer only. The other received polymer and HB-EGF at 5 μg/ml (same dose used in above models). 100% of the HB-EGF group healed (16 of 16) compared to 41% (7/17) in the control group (p<0.01). In the control group the healing was also different when it did occur. The TM was often very thin and transluscent compared to a slightly opaque normal TM. […] The ability to still overcome this critical step in TM chronic wound healing using HB-EGF to activate EGFR ectodomain ligand in the closest model to human CSOM validates the method of treatment.

Assay [3] relates to chronic perforations and ET occlusion in mice. In words: HB-EGF treatment of chronic TM perforations with Eustachian tube occlusion. It counts as in vivo. The protocol: HB-EGF heals chronic tympanic membrane perforations with Eustachian tube occlusion. An existing rat model of ET occlusion (see Herda et al. (2002) Laryngoscope 112:1657-62) was adapted to the mouse and has since been performed in 80 live mice with success. The ET occlusion was performed with the chronic perforation model described above. This created a wet sterile discharging perforation at 3 months. This model mimics the human condition of chronic perforation combined with ET dysfunction.
When a cohort of mice with this model (chronic perforations and ET occlusion) were treated with recombinant HB-EGF, 40 μl at a concentration of 5 μg/ml (sustained release dose via a bioabsorbable chitosan polymer) 94% (18 of 19) healed compared to 9% (2 of 23) of controls (polymer only) at 6 weeks (p<0.01). […] The ability to overcome this critical step in TM chronic wound healing using HB-EGF to activate EGFR ectodomain ligand shedding in the presence of middle ear effusions and ET occlusion is useful in treating patients with chronic tympanic membrane perforation.

The subject of assay [4] is chronic perforations in mice ears. In words: HB-EGF treatment of chronic tympanic membrane perforations. The conditions noted are these: 40 μl gel, 5 μg/ml, sustained release chitosan-based polymer; at 4 weeks; p<0.01 vs polymer only. It counts as in vivo. The protocol:
HB-EGF heals chronic tympanic membrane perforations. When a cohort of chronic perforations in mice ears were treated with 40 μl of a gel containing recombinant HB-EGF at a concentration of 5 μg/ml (sustained release dose via a bioabsorbable chitosan-based polymer) 92% (22 of 24) healed, compared to 38% (10 of 26) of controls (polymer only) at 4 weeks (p<0.01). […] This is the first growth factor treatment tested in an animal model of chronic perforation that has shown significant benefit over control.

`CNC(=O)[C@@H](NC(=O)[C@H](CC(C)C)[C@H](C)C(=O)NO)c1ccccc1` [OSU8-1]: the “chronic perforations at 3 months, larger cohort” value in assay [1] (larger cohort, n=58, 3 months) was found to be 87.9%. The “Perforations open at 2 months” value in assay [1] and in assay [1] (listed as HB-EGF inhibitor) was 100% in each case. Further, the “Perforations open at 3 months” value in assay [1] (3 months) is given as 71%; in assay [1] (3 months, listed as HB-EGF inhibitor), 71%; in assay [1] (3 months, listed as OSU8.1) it was 71%. Also, in assay [1] (over three months, ImageJ), the “Perforation size (perforation area as a percentage of the pars tensa area)” value was “stable”.

B1: HB-EGF: recombinant heparin binding epidermal growth factor, delivered in a bioabsorbable chitosan-based polymer gel at 5 μg/ml (protein, UniProt Q99075 63-148, looked up)
Heparin-binding EGF-like …: DLQEADLDLLRVTLSSKPQALATPNKEEHGKRKKKGKGLGKKRDPCLRKYKDFCIHGECKYVKELRAPSCICHPGYHGERCHGLSL
modifications: Heparin-binding EGF-like growth factor in chitosan-based gel
For B1, in assay [2], the “appearance of healing in CSOM model” value is reported as “appeared normal”. The “perforations healed in CSOM model” value in assay [2] (p<0.01 vs polymer only) was determined as 100%. Besides, the “chronic perforations with ET occlusion healed” value in assay [3] (40 μl at 5 μg/ml, sustained release chitosan polymer, at 6 weeks, p<0.01 vs polymer only) stood at 94%. Besides, the “histology of perforation closure” value in assay [3] (chronic perforations and ET occlusion model) is “close with thick layer of keratinocytes”. In assay [4], this molecule registered a chronic perforations healed of 92%.
